# Entries after “also recorded” stand apart in the source; their conditions may differ.
# What was measured:
# Assay type in all cases: cell-based
# EDG3 [1] = target: T1, EDG3 (Homo sapiens, UniProt Q99500); experiment: GPCR reactivity screen, PathHunter β-Arrestin, agonist assay EDG3; design: concentration or dose not given beside the values; conditions: agonist mode; control sphingosine-1-phosphate
# Description: (§1) To evaluate the role specific cannabinoid compounds play in the neurological signaling pathway for itching, a GPCR reactivity assay was performed to determine the reactivity of 19 cannabinoid compounds to each of CHRM2, EDG3, and MRGPRX2. The evaluated cannabinoid compounds were: CBN, THCV, CBDVA, CBG, CBL, CBC, CBDV, CBDA, CBD, CBGA, (+)-CBD, CBG-C4, CBD-C1, CBD-C2, CBGV, CBGA-C4, CBGVA, CBCA, and CBLA. Acetylcholine was used as the control for CHRM2, sphingosine-1-phosphate was used as the control for EDG3; and cortistatin 14 was used as the control for MRGPRX2.
# (§2) A total of six assays were run. Specifically, agonist and antagonist assays were run for each of CHRM2, EDG3, and MRGPRX2. In each of the three agonist assays, PathHunter® cell lines were removed from a freezer stock and seeded at a volume of 20 μL into white walled, 384-well microplates and incubated at 37° C. Each cell was incubated with a sample to induce a response and then diluted to generate a 5× sample in assay buffer. 5 μL of the 5× sample was then added to cells and incubated at 37° C. for 90 or 180 minutes. The final assay concentration was 1%. The assay signal was generated through addition of 12.5 μL or 15 μL (50% V/V) of a detection reagent cocktail followed by a one hour incubation time at room temperature. Microplates were read following signal generation with a PerkinElmer Envision™ (PerkinElmer Inc., Waltham, Mass.) for chemiluminescent signal detection. Reactivity was analyzed using the CBIS data analysis suite (ChemInnovation, CA) where RLU refers to the raw measured values. The percent activity was then calculated using the formula: % Activity=100%*(mean RLU of test sample−mean RLU of control)/(mean max control ligand−mean RLU of vehicle control).
# (§3) As used herein, strong activity against a receptor is considered a percent activity of about 42% or higher. Higher results for antagonism against CHRM2, EDGE, and MRGPRX2 are considered better. It is further considered better when a cannabinoid inhibits more than one of the receptors.
# CHRM2 [2] = target: T2, CHRM2 (Homo sapiens, UniProt P08172); experiment: GPCR reactivity screen, PathHunter β-Arrestin, agonist assay CHRM2; design: concentration or dose not given beside the values; conditions: agonist mode; control acetylcholine
# T2 sequence (P08172 1-466): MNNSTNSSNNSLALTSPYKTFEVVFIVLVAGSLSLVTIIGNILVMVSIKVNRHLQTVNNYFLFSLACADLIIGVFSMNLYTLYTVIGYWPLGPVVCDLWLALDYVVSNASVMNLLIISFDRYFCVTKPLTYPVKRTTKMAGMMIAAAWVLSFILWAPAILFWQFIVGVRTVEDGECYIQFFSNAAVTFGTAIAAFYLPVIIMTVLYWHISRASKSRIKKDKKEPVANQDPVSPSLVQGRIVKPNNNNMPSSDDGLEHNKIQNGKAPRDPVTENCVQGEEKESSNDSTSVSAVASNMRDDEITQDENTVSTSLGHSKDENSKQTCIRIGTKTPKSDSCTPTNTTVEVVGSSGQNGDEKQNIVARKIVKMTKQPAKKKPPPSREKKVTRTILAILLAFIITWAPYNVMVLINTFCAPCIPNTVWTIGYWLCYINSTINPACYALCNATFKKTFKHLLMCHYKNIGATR
# Description: as §1, §2, §3
# EDG3 [3] = target: T1, EDG3; experiment: GPCR reactivity screen, PathHunter β-Arrestin, antagonist assay EDG3; conditions: for antagonist activity against EDG3 (in words): GPCR reactivity screen; for EDG3 (Antagonist) percent inhibition: antagonist mode, agonist challenge at EC80
# Description: as §1
# (§4) In each of the antagonist assays, PathHunter® cell lines were removed from a freezer stock and seeded at a volume of 20 μL into white walled, 384-well microplates and incubated at 37° C. Each cell was pre-incubated with an antagonist followed by an agonist challenge at the EC80 concentration. Cells were then diluted to generate a 5× sample in assay buffer. 5 μL of the 5× sample was then added to cells and incubated at 37° C. for 30 minutes. Finally, 5 μL of 6×EC80 agonist in assay buffer were added to the cells and incubated at 37° C. for 90 minutes or 180 minutes. The assay signal was generated through addition of 12.5 μL or 15 μL (50% V/V) of a detection reagent cocktail followed by a one hour incubation time at room temperature. Microplates were read following signal generation with a PerkinElmer Envision™ (PerkinElmer Inc., Waltham, Mass.) for chemiluminescent signal detection. Reactivity was analyzed using the CBIS data analysis suite (ChemInnovation, CA) where RLU refers to the raw measured values. The percent inhibition was calculated using the formula: % Inhibition=100%*(1−mean RLU of test sample−mean RLU of control)/(mean RLU of EC80 control−mean RLU of vehicle control).
# as §3
# MRGPRX2 [4] = target: T3, MRGPRX2 (Homo sapiens, UniProt Q96LB1); experiment: GPCR reactivity screen, PathHunter β-Arrestin, agonist assay MRGPRX2; conditions: agonist mode; control cortistatin 14
# T3 sequence (Q96LB1 1-330): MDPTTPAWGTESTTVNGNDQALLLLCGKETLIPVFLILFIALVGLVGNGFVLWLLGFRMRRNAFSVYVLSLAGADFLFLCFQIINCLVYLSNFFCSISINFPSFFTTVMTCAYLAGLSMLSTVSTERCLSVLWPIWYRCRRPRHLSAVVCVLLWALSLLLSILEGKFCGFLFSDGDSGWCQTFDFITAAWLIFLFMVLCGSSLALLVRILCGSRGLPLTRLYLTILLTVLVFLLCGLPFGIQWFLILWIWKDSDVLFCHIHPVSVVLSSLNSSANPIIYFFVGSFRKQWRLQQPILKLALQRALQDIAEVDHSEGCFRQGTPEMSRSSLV
# Description: as §1, §2, §3
# MRGPRX2 [5] = target: T3, MRGPRX2; experiment: GPCR reactivity screen, PathHunter β-Arrestin, antagonist assay MRGPRX2; conditions: for antagonist activity against MRGPRX2 (in words): GPCR reactivity screen; for MRGPRX2 (Antagonist) percent inhibition: antagonist mode, agonist challenge at EC80
# Description: as §1, §4, §3
# CHRM2 [6] = target: T2, CHRM2; experiment: GPCR reactivity screen, PathHunter β-Arrestin, antagonist assay CHRM2; conditions: for antagonist activity against CHRM2 (in words): GPCR reactivity screen; for CHRM2 (Antagonist) percent inhibition: antagonist mode, agonist challenge at EC80
# Description: as §1, §4, §3
# MRGPRX2 [7] = target: T3, MRGPRX2; experiment: IC50 antagonist activity screen, PathHunter β-Arrestin, MRGPRX2; conditions: maximum of IC50 curve
# Description: as §4
# as §3, with “IC50 curves were measured using the same GPCR assay, PathHunter® β-Arrestin from Eurofins DiscoverX Products (Fremont, Calif.), as the GPCR reactivity screen. As” for “As”, “maximum” for “percent”
# T1 sequence (Q99500 whole entry): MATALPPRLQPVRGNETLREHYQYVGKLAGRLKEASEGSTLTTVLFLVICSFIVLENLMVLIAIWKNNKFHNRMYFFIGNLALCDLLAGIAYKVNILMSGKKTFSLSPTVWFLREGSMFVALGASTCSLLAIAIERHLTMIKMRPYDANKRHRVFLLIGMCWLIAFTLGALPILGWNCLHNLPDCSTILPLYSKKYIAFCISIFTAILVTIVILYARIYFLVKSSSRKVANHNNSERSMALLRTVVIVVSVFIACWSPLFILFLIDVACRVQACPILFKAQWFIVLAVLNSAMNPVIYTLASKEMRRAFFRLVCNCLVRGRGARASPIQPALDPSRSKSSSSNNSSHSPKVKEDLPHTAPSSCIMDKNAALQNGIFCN
SMILES,EDG3 (Agonist) percent activity (EDG3 [1]) [%],CHRM2 (Agonist) percent activity (CHRM2 [2]) [%],antagonist activity against EDG3 (in words) (EDG3 [3]),EDG3 (Antagonist) percent inhibition (EDG3 [3]) [%],MRGPRX2 (Agonist) percent activity (MRGPRX2 [4]) [%],antagonist activity against MRGPRX2 (in words) (MRGPRX2 [5]),MRGPRX2 (Antagonist) percent inhibition (MRGPRX2 [5]) [%],antagonist activity against CHRM2 (in words) (CHRM2 [6]),CHRM2 (Antagonist) percent inhibition (CHRM2 [6]) [%],maximum inhibition (antagonism) MRGPRX2 (MRGPRX2 [7]) [%]
"CCCc1cc(O)c(C/C=C(\C)CCC=C(C)C)c(O)c1C(=O)O [CBGVA, cannabigerovarinic acid]",−1,−4,do not exhibit an antagonistic effect,9,−1,do not exhibit an antagonistic effect,7,do not exhibit an antagonistic effect,23,–
"CCCc1cc(O)c(C/C=C(\C)CCC=C(C)C)c(O)c1 [CBGV, cannabigerivarin]",2,0,–,29,1,antagonist activity,95,–,28,76
"CCCCCc1cc2c(c(O)c1C(=O)O)C1C3C(CCC3(C)O2)C1(C)C (stereo not shown) [CBLA, cannabicyclolic acid]",3,−4,–,19,2,–,36,–,−19,44
"C=C(C)[C@@H]1CCC(C)=C[C@H]1c1c(O)cc(CCC)c(C(=O)O)c1O [CBDVA, cannabidivarinic acid]",−3,2,do not exhibit an antagonistic effect,13,5,do not exhibit an antagonistic effect,−8,do not exhibit an antagonistic effect,2,–
"CCCCCc1cc(O)c2c(c1)OC(C)(C)c1ccc(C)cc1-2 [CBN, cannabinol]",5,0,–,12,22,antagonist activity,73,–,7,78
"C=C(C)[C@@H]1CCC(C)=C[C@H]1c1c(O)cc(CCCCC)c(C(=O)O)c1O [CBDA, cannabidiolic acid]",−1,1,do not exhibit an antagonistic effect,5,4,do not exhibit an antagonistic effect,8,do not exhibit an antagonistic effect,−10,–
"CCCCc1cc(O)c(CC=C(C)CCC=C(C)C)c(O)c1 [CBG-C4, cannabigerol butyl]",3,0,–,28,3,antagonist activity,94,–,13,85
"CCCCCc1cc(O)c(C/C=C(\C)CCC=C(C)C)c(O)c1C(=O)O [CBGA, cannabigerolic acid]",2,−3,do not exhibit an antagonistic effect,12,0,do not exhibit an antagonistic effect,17,do not exhibit an antagonistic effect,12,–
"CCCCc1cc(O)c(C/C=C(\C)CCC=C(C)C)c(O)c1C(=O)O [CBGA-C4, cannabigerolic acid butyl]",0,−4,do not exhibit an antagonistic effect,16,−1,do not exhibit an antagonistic effect,20,do not exhibit an antagonistic effect,19,–
"C=C(C)[C@@H]1CCC(C)=C[C@H]1c1c(O)cc(C)cc1O [CBD-C1, cannabidiorcol]",1,−1,do not exhibit an antagonistic effect; also recorded: did not exhibit antagonistic effects,13,1,do not exhibit an antagonistic effect; also recorded: did not exhibit antagonistic effects,12,do not exhibit an antagonistic effect; also recorded: did not exhibit antagonistic effects,2,–
